Common to all, as to experiment: NCI anticancer screen, dose series, 48 h
Assay [1] concerns A549.
Assay [2] relates to ACHN.
For assay [3], the system named is HCT-116.
In assay [4] the test system is HOP-62.
In assay [5] the test system is HOP-92.
Assay [6] deals with HT-29.
Assay [7] has as its system IGROV-1.
Assay [8] has as its system K562.
Assay [9] concerns LOX IMVI.
In assay [10] the test system is Malme-3M.
In assay [11] the test system is NCI-H23.
Assay [12] has as its system OVCAR-8.
The test system of assay [13] is RPMI-8226.
Assay [14] concerns SK-MEL-28.
Assay [15] deals with SK-MEL-5.
Assay [16] concerns SK-OV-3.
Assay [17] relates to SW-620.
The subject of assay [18] is T47D.
For assay [19], the system named is TK-10.
For assay [20], the system named is UACC-62.

Data on seven molecules can be found in ChEMBL document CHEMBL1201862, “PubChem BioAssay data set” (2004).

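Cells were grown in 96-well plates and exposed to each compound for 48 hours at five concentrations; endpoints were interpolated linearly between bracketing concentrations, or set to the highest concentration if not reached. GI50 is the concentration that inhibits growth by half.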 The source made the active and inactive calls. Rule as the data show it: active = GI50 up to about 1.1 µM and inactive = higher. Bounds are passed on as bounds.

On to `N[C@H]1CCCC[C@@H]1N1C(=O)c2ccccc2C1(O)c1ccc(Cl)cc1` (stereo not given in full), for which the GI50 is 12.2 µM (inactive) in assay [1]; 13.7 µM (inactive) in assay [2]; 9.79 µM (inactive) in assay [3]; 14.5 µM (inactive) in assay [4]; 10.3 µM (inactive) in assay [5]; 4.75 µM (inactive) in assay [6]. For the same molecule, the GI50 in assay [7] is 12.6 µM (inactive); in assay [8] it was 3.19 µM (inactive); in [9], 9.38 µM (inactive); in assay [10], 14 µM (inactive); in [11], 14.9 µM (inactive); in assay [12] it was 15.4 µM (inactive). For the same molecule, the GI50 in assay [13] is 2.61 µM (inactive); in assay [14], 3.78 µM (inactive); in assay [15], 10.5 µM (inactive); in assay [16], 15.7 µM (inactive); in assay [17] it was 6.3 µM (inactive); in assay [18], 4.99 µM (inactive). In addition, the GI50 in [19] was 12.9 µM (inactive); in [20], 13 µM (inactive).
Regarding `N#C[BH2-][n+]1ccc(C(=O)NNCc2cccc(C(F)(F)F)c2)cc1`, the GI50 is 13.5 µM (inactive) in assay [1]; 33.7 µM (inactive) in [2]; 15.2 µM (inactive) in assay [3]; 12.8 µM (inactive) in assay [4]; 14.9 µM (inactive) in assay [5]; 6.01 µM (inactive) in assay [6]. Besides, the GI50 was 30.1 µM (inactive) in assay [7]; 20.5 µM (inactive) in [8]; 4.26 µM (inactive) in assay [9]; 3.54 µM (inactive) in assay [10]; 12.2 µM (inactive) in [11]; 3.98 µM (inactive) in assay [12]. Moreover, the GI50 is 21.4 µM (inactive) in assay [13]; 5.5 µM (inactive) in assay [14]; 1.83 µM (inactive) in [15]; 8.93 µM (inactive) in assay [16]; 25.5 µM (inactive) in [17]; 20 µM (inactive) in assay [18]. Moreover, the GI50 is 27.3 µM (inactive) in assay [19] and 4.59 µM (inactive) in [20].
For the molecule `N#Cc1c(Cl)nc2ccccc2c1N=[N+]=[N-]`, the GI50 in assay [1] was 16.6 µM (inactive); in [2] it was 2.11 µM (inactive); in assay [3] it was 1.66 µM (inactive); in assay [4], 17.3 µM (inactive); in assay [5], 1.7 µM (inactive); in [6] it was 1.92 µM (inactive). In addition, the GI50 was 1.95 µM (inactive) in assay [7]; 0.705 µM (active) in assay [8]; 1.67 µM (inactive) in [9]; 2.18 µM (inactive) in [10]; 2.52 µM (inactive) in assay [11]; 3.02 µM (inactive) in [12]. The GI50 was 2.11 µM (inactive) in assay [13]; 2.95 µM (inactive) in assay [14]; 14.2 µM (inactive) in assay [15]; 15.5 µM (inactive) in assay [16]; 1.73 µM (inactive) in assay [17]; 2.47 µM (inactive) in assay [18]. The GI50 in [19] is 4.82 µM (inactive); in assay [20] it was 2.63 µM (inactive).
Turning to `O=C(Cn1ccnc1[N+](=O)[O-])NCCO` [ETANIDAZOLE], the GI50 in assay [1], in [2], in assay [3], in assay [4], in assay [5] and in assay [6] was > 100 µM (inactive) in each case. Besides, the GI50 in assay [7], in [8], in assay [9], in assay [10], in assay [11] and in [12] was > 100 µM (inactive) throughout. In addition, the GI50 in assay [13], in assay [14], in [15], in assay [16], in assay [17] and in [18] was > 100 µM (inactive) in each case. The GI50 in assay [19] and in assay [20] was > 100 µM (inactive) each time.
For `Cc1cc(C)nc(SC(C)C(=O)N/N=C/c2ccc(OCc3ccccc3)cc2)n1` (stereo not given), the GI50 is 31.3 µM (inactive) in [1]; 25.2 µM (inactive) in assay [2]; 23.9 µM (inactive) in assay [3]; 36 µM (inactive) in assay [4]; 28.6 µM (inactive) in assay [5]; 14.5 µM (inactive) in assay [6]. For the same molecule, the GI50 in assay [7] was 54.8 µM (inactive); in assay [8], 6.11 µM (inactive); in assay [9] it was 22.1 µM (inactive); in assay [10] it was 22.3 µM (inactive); in [11] it was 18 µM (inactive); in assay [12], 30.4 µM (inactive). Moreover, the GI50 is 13.3 µM (inactive) in assay [13]; 53.2 µM (inactive) in assay [14]; 7.03 µM (inactive) in assay [15]; 41.5 µM (inactive) in assay [16]; 39.5 µM (inactive) in assay [17]; 9.53 µM (inactive) in assay [18]. Also, the GI50 in assay [19] is 27.2 µM (inactive); in assay [20], 14.5 µM (inactive).
For `CC1=NN(c2ccccc2)C(=O)C1/N=N/c1ccc(S(N)(=O)=O)cc1` (stereo not given), the GI50 in [1], in [2], in assay [3], in assay [4], in assay [5] and in [6] was > 100 µM (inactive) each time. Besides, the GI50 in [7], in assay [8], in [9], in [10], in assay [11] and in assay [12] was > 100 µM (inactive) throughout. For the same molecule, the GI50 in assay [13], in assay [14], in assay [15], in [16], in assay [17] and in assay [18] was > 100 µM (inactive) each time. Further, the GI50 in [19] and in assay [20] was > 100 µM (inactive) throughout.
Consider `c1ccc2c3nnc(c2c1)SCCCSc1nnc(c2ccccc12)SCCCS3`, for which the GI50 in assay [1] was 58.5 µM (inactive); in assay [2], 72.3 µM (inactive); in [3], > 100 µM (inactive); in assay [4], 24.2 µM (inactive); in [5] it was 32.9 µM (inactive); in assay [6], > 100 µM (inactive). Besides, the GI50 is 47.2 µM (inactive) in assay [7]; > 100 µM (inactive) in [8]; > 100 µM (inactive) in assay [9]; 34.8 µM (inactive) in [10]; 71.1 µM (inactive) in assay [11]; 36.7 µM (inactive) in [12]. Also, the GI50 in [13] was > 100 µM (inactive); in assay [14] it was 44.7 µM (inactive); in assay [15], 23 µM (inactive); in [16], > 100 µM (inactive); in [17], > 100 µM (inactive); in assay [18], > 100 µM (inactive). The GI50 was 76.7 µM (inactive) in assay [19] and 31.7 µM (inactive) in [20].
